Literature values, collected in PMC6021390, “A promiscuous cytochrome P450 aromatic O-demethylase for lignin bioconversion” (Nature Communications, 2018).

Experiments:
LigX = test system: LigX; set-up: method as in ref 37 (a number printed in a supplementary file, which may have a reference list of its own: not looked up in the article's list); details: 0.2 μM LigXa, 6 μM LigXc, 0.4 μM LigXd, 500 μM NADH, substrate 10-500 μM, FE22 buffer, pH 6.0, 30 °C; cited from earlier work
PODA [1] = experiment: Cited steady-state O-demethylation of cryptopine (0-500 uM) by 100 ug PODA with 500 uM alpha-ketoglutarate, 500 uM iron sulfate and 10 mM sodium ascorbate in 100 mM Tris, pH 7.4, 30 °C, air.; format: biochemical; details: cited from earlier work
PODA [2] = test system: PODA; set-up: method as in ref 36 (a number printed in a supplementary file, which may have a reference list of its own: not looked up in the article's list); details: 100 μg PODA, 500 μM α-KG, 500 μM iron sulfate, 10 mM sodium ascorbate, cryptopine 0-500 μM, pH 7.4, 30 °C; cited from earlier work

COc1cc(C(=O)O)cc(-c2cc(C(=O)O)cc(OC)c2O)c1O [5,5’-dehydrodivanillate]
kcat (LigX): 6.1 ± 0.2 s⁻¹

COc1cc2c(cc1OC)C(=O)Cc1ccc3c(c1CN(C)CC2)OCO3 [cryptopine]
Km (PODA [1]): 27 µM
kcat (PODA [2]): 0.034 s⁻¹
